Where two headings read alike, the source gives them in different places.
Legend:
Phospholipase A2 = Phospholipase A2 inhibition (myristic acid liberated from myristyllecithin, HPLC); type: biochemical
Protocol: Prior to the determination of the activity of phospholipase A by determining myristic acid liberated from a substrate (myristyllecithin) by said enzyme by high-performance liquid chromatography, the following test compounds were added in amounts as shown in Table 1 to examine the effects thereof.
CoQ10 was employed for the purpose of comparison. [drawing 17]
Each value in Table 1 represents the evaluation of the corresponding compound assuming the value of a physiological saline solution as 100 and indicates the phospholipase A2 inhibition activity thereof.

human platelets = assay: Repression of human platelet agglutination in vitro (PRP; PAF, collagen or ADP as inducer); type: cell-based; conditions: for inhibition at 100 µM: test compound 100 μM; for inhibition at 200 µM: test compound 200 μM; for inhibition at 20 µM: test compound 20 μM; for inhibition at 50 µM: test compound 50 μM
Protocol: Effects of repressing human platelet agglutination of the compounds of the present invention were examined in vitro. Platelet agglutination test was carried out in the following manner with the use of PAF (platelet activating factor; 1-alkyl-2-acetyl-sn-glycero-3-phosphocholine), collagen and ADP as inducers.
Blood was collected from the venae brachiales of a healthy adult in an amount of nine parts by volume to one part by volume of a 3.8% sodium citrate solution. The blood was centrifuged at 100 ×g for eight min and PRP separated as the supernatant was collected.
To 0.2 ml of the PRP as prepared above, 25 μl portions of test solutions in various concentrations were added and each mixture was incubated at 37° C. for three min. 25 μl of the abovementioned inducer solution was added thereto to induce agglutination. PAF, collagen and ADP were added as inducers to the final concentrations of 100 ng/ml, 1 μg/ml and 5 μM, respectively. Platelet agglutination was determined with an aggregometer (a product of Niko Bioscience Co., Ltd.) by the method of Mustard et al. (cf. Mustard, J.F., Hegaldt, B., Rosewell, H.C., MacMillan, R.C., J. Lab. Clin. Med., 64, 548-559 (1964)). The repressing effect of each test compound was evaluated as the repression ratio with the use of PRP containing vehicle as control.
(3) The following compounds were tested. Compounds A to D are as defined in Experimental Example 1. [drawing 18]
Each figure in Table 2 represents the repression ratio (%) of the corresponding compound.

[1] = inducer ADP 5 μM, read-out: repression ratio of platelet agglutination, ADP
[2] = inducer PAF 100 ng/ml, read-out: repression ratio of platelet agglutination, PAF
[3] = inducer collagen 1 μg/ml, read-out: repression ratio of platelet agglutination, Collagen

| Compound | Phospholipase A activity (physiological saline = 100) (Phospholipase A2; final concentration 43 μM) [%] | inhibition at 100 µM (human platelets; [1]) [%] | inhibition at 200 µM (human platelets; [1]) [%] | inhibition at 20 µM (human platelets; [2]) [%] | inhibition at 100 µM (human platelets; [2]) [%] | inhibition at 200 µM (human platelets; [2]) [%] | inhibition at 20 µM (human platelets; [3]) [%] | inhibition at 100 µM (human platelets; [3]) [%] | Phospholipase A activity (physiological saline = 100) (Phospholipase A2; final concentration 4 μM) [%] | inhibition at 20 µM (human platelets; [1]) [%] | inhibition at 50 µM (human platelets; [1]) [%] | inhibition at 50 µM (human platelets; [2]) [%] |
| --- | --- | --- | --- | --- | --- | --- | --- | --- | --- | --- | --- | --- |
| COC1=C(OC)C(=O)C(C/C=C(\C)CC/C=C(\C)CC/C=C(\C)CC/C=C(\C)CC/C=C(\C)CC/C=C(\C)CC/C=C(\C)CC/C=C(\C)CC/C=C(\C)CCC=C(C)C)=C(C)C1=O [CoQ10, Ubidecarenone, reference compound] | 56 | 8.7 | 11.3 | 8 | 16.2 | 19 | 6.5 | 18.7 |  |  |  |  |
| COC1=C(OC)C(=O)C(C/C=C(\C)CC/C=C(\C)CC/C=C(\C)CC/C=C(\C)C(=O)O)=C(C)C1=O [Compound A] |  | 22.1 | 23.1 | 27.8 | 42.6 | 52.9 | 62.4 | 86.6 | 66 | 12.4 | 2.1 | 36 |
| COc1c(O)c(C)c(C/C=C(\C)CC/C=C(\C)CC/C=C(\C)CC/C=C(\C)C(=O)O)c(OC)c1OC [Compound B] |  | 21.5 | 24.2 | 21.6 | 38.4 | 51.6 | 21.4 | 69.6 | 55 | 12.9 | 24.8 | 36.8 |
| COC1=C(OC)C(=O)C(C/C=C(\C)CC/C=C(\C)CC/C=C(\C)C(=O)O)=C(C)C1=O [Compound C] |  |  | 18.3 | 3.5 | 12.2 | 47.3 | 3.2 | 17.2 | 25 |  |  | 3.4 |
| COc1c(O)c(C)c(C/C=C(\C)CC/C=C(\C)CC/C=C(\C)C(=O)O)c(OC)c1OC [Compound D] |  | 13.5 | 21.3 | 4.5 | 26 | 51.5 | 2.8 | 39.3 | 24 |  | 9 | 23.8 |
| COc1c(O)c(C)c(C/C=C(\C)CC/C=C(\C)C(=O)O)c(OC)c1OC [Compound E] |  | 10.7 | 23 | 3.03 | 32.5 | 45.4 | 45.4 | 75.8 |  |  |  | 28.1 |
| COc1c(O)c(C)c(C/C=C(\C)CC/C=C(\C)CC/C=C(\C)CC/C=C(\C)CC/C=C(\C)C(=O)O)c(OC)c1OC [Compound F] |  | 6.7 | 26.3 |  | 9.3 | 49 | 5 | 15.8 |  |  |  | 5.9 |
| COc1c(O)c(C)c(C/C=C(\C)CC/C=C(\C)CC/C=C(\C)CC/C=C(\C)CC/C=C(\C)CC/C=C(\C)C(=O)O)c(OC)c1OC [Compound G] |  | 14 | 23.1 |  | 12.8 | 59.8 |  | 30.2 |  |  |  | 8.1 |
| COC1=C(OC)C(=O)C(C/C=C(\C)CC/C=C(\C)C(=O)O)=C(C)C1=O [Compound H] |  | 8.8 | 18.2 | 8.8 | 37.8 | 47.3 | 38.1 | 84.3 |  |  |  | 28.2 |
| COC1=C(OC)C(=O)C(C/C=C(\C)CC/C=C(\C)CC/C=C(\C)CC/C=C(\C)CC/C=C(\C)C(=O)O)=C(C)C1=O [Compound I] |  | 3.9 | 22 | 2.8 | 10.8 | 53.3 |  | 24.1 |  |  |  | 3.9 |
| COC1=C(OC)C(=O)C(C/C=C(\C)CC/C=C(\C)CC/C=C(\C)CC/C=C(\C)CC/C=C(\C)CC/C=C(\C)C(=O)O)=C(C)C1=O [Compound J] |  | 27.1 | 30.1 | 6 | 24.9 | 65.3 |  | 22 |  |  | 16.5 | 2.7 |

— patent US4992469A, “Method of obtaining an antiplatelet effect” (Eisai Co., Ltd., priority 1984, dated 1991)
